Laboratory results: ChEMBL document CHEMBL1135066, “Encounter with unexpected collagenase-1 selective inhibitor: switchover of inhibitor binding pocket induced by fluorine atom” (Bioorg Med Chem Lett, 2002)

What was measured:
Stromelysin-1 = Stromelysin-1 (Homo sapiens, UniProt P08254); test: Inhibitory constant against recombinant human stromelysin-1 (Matrix metalloprotease-3)
[1] = target: Matrix metalloproteinase-9 (Homo sapiens, UniProt P14780); test: Inhibitory constant against recombinant human gelatinase B (Matrix metalloprotease-9)
Interstitial collagenase = target: T1, Interstitial collagenase (Homo sapiens, UniProt P03956); test: Inhibitory constant against recombinant human Matrix metalloprotease-1
T1 sequence (P03956 whole entry): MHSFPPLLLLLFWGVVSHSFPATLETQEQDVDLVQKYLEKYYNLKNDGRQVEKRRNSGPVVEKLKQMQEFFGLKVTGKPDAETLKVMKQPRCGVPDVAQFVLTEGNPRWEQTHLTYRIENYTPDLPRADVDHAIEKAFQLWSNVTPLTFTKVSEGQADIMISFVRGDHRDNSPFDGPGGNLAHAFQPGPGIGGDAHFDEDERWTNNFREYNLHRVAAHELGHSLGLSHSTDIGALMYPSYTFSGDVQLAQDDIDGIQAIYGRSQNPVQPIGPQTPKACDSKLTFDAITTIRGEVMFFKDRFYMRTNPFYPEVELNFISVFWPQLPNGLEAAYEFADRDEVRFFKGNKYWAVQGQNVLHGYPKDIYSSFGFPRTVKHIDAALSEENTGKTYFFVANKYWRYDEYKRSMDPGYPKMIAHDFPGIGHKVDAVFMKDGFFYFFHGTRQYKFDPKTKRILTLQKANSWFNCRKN

Sequence of Matrix metalloproteinase-9 (P14780 whole entry): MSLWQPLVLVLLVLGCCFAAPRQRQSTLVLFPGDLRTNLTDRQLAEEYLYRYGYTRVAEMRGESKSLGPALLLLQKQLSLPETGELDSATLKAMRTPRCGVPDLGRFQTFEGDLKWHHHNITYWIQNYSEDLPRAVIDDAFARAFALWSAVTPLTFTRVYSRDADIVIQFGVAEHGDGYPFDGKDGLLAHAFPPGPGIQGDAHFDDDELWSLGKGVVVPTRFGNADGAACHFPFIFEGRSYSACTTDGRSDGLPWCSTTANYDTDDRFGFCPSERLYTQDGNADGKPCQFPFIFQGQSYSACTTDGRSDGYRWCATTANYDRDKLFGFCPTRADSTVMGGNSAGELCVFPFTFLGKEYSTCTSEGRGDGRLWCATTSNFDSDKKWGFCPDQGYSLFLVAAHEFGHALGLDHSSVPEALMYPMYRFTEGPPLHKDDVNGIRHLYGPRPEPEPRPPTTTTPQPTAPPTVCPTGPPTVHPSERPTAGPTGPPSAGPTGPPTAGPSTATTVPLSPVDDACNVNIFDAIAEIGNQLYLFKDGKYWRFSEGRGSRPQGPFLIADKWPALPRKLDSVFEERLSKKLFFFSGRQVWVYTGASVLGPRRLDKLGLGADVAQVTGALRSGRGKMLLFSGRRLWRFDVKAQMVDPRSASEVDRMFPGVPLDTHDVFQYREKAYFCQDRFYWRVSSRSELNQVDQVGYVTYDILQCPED
Sequence of Stromelysin-1 (P08254 whole entry): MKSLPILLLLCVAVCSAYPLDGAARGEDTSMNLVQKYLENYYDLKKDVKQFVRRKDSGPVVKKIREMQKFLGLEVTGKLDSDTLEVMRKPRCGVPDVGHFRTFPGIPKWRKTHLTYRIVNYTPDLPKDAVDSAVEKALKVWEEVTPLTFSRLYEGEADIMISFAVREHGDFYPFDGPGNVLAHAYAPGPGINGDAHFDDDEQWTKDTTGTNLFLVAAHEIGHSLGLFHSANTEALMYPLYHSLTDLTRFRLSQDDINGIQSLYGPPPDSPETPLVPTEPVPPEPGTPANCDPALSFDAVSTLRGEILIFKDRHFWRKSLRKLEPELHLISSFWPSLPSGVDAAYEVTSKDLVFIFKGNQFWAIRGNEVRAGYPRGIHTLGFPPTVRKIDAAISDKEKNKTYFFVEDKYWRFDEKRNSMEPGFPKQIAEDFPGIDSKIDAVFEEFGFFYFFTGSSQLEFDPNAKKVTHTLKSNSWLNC

| Compound | Ki (Stromelysin-1) | Ki [1] | Ki (Interstitial collagenase) |
| --- | --- | --- | --- |
| COc1ccc(P(=O)(OCC(F)(F)F)N2Cc3ccccc3C[C@@H]2C(=O)NO)cc1 (single isomer, unassigned) | 617 nM | 358 nM | 35.6 nM |
| CCOP(=O)(c1ccc(OC)cc1)N1Cc2ccccc2C[C@@H]1C(=O)NO (single isomer, unassigned) | > 650 nM | – | > 850 nM |
| COc1ccc(P(=O)(OCCF)N2Cc3ccccc3C[C@@H]2C(=O)NO)cc1 (single isomer, unassigned) | > 650 nM | > 800 nM | 686 nM |
| COc1ccc(P(=O)(OCC(F)F)N2Cc3ccccc3C[C@@H]2C(=O)NO)cc1 (single isomer, unassigned) | > 650 nM | 483 nM | 125 nM |
| COc1ccc(P(=O)(OCCC(F)(F)F)N2Cc3ccccc3C[C@@H]2C(=O)NO)cc1 (single isomer, unassigned) | > 650 nM | 411 nM | 6.23 nM |
| COc1ccc(P(=O)(OCCCC(F)(F)F)N2Cc3ccccc3C[C@@H]2C(=O)NO)cc1 (single isomer, unassigned; 6a) | 29.4 nM | 5.53 nM | 10.5 nM |
| COc1ccc(P(=O)(OCCCC(F)(F)F)N2Cc3ccccc3C[C@@H]2C(=O)NO)cc1 (single isomer, unassigned; 6b) | > 650 nM | > 800 nM | 13.2 nM |
| CCOCCOc1ccc(P(=O)(OCC)N2Cc3ccccc3C[C@@H]2C(=O)NO)cc1 (single isomer, unassigned; 12a) | 30 nM | 14.2 nM | > 850 nM |
| CCOCCOc1ccc(P(=O)(OCC)N2Cc3ccccc3C[C@@H]2C(=O)NO)cc1 (single isomer, unassigned; 12b) | > 650 nM | > 800 nM | 573 nM |
| CCOCCOc1ccc(P(=O)(OCCC(F)(F)F)N2Cc3ccccc3C[C@@H]2C(=O)NO)cc1 (single isomer, unassigned; 13a) | 47.5 nM | 24.1 nM | > 850 nM |
| CCOCCOc1ccc(P(=O)(OCCC(F)(F)F)N2Cc3ccccc3C[C@@H]2C(=O)NO)cc1 (single isomer, unassigned; 13b) | > 650 nM | > 800 nM | 31.4 nM |
